The values that follow are results of earlier work, collected in paper PMC10326281, “Insights into the mechanisms governing P01 scorpion toxin effect against U87 glioblastoma cells oncogenesis” (Frontiers in Pharmacology, 2023).

Like-named read-outs stand apart in the source and are kept apart here. Bridges are numbered along the chain shown (N, C = ends). Where no end group is shown, it is not given here.

Data set [1] concerns U87 cells. The settings on record: ref Abdullaev et al., 2010; cited from earlier work. An excerpt: (§1) Besides, it seems that the effect of P01 on U87 cell proliferation is not due only to its blocking activity of SK2 channels, but also by targeting a complex of membrane receptors and/or effectors expressed in U87 cells, including SK2. […] These authors noted that the concentrations necessary for blocking proliferation were higher than those necessary for blocking these ion ...

Data set [2] has as its system SK2 channel. The following applies: HEK293 cells; ref Hosseini et al., 2001; cited from earlier work.
Excerpt: as §1

Data set [3] concerns hSK1 channel. The settings on record: ref Shah and Haylett, 2000, cited from earlier work. An excerpt:
This can be explained by the differential expression of either functional SK2 isoforms or other membrane receptors between HEK293 and Jurkat cells.

For data set [4], the system named is hSK1 channel. The following applies: 2000, cited from earlier work. An excerpt: (§2) Our team has initiated the fractionation of Aa scorpion venom, in order to identify scorpion peptides targeting potassium channels involved in the oncological process. Thus, we succeeded to isolate one peptide well represented in this venom. Based on its N-terminal sequence and its mass fingerprint this peptide corresponded to the P01 toxin, previously described by ([Zerrouk et al., 1996]).

Data set [5] concerns rSK2 channel. The settings on record: cited from earlier work.
Excerpt: as §2

For data set [6], the system named is Kv1.3 potassium channel. The settings on record: ref Wang, 2004; cited from earlier work. An excerpt:
Recently, the anticancer activities of some natural peptides/toxins attracted considerable attention in drug discovery and have been the object of several studies showing that they affect tumor growth, induce apoptosis and inhibit cancer metastasis and angiogenesis in vitro and in vivo ([Ding et al., 2014]; [Majc et al., 2022]). Several examples of the activity of these peptides/toxins as well as their effect on K^+ channels have been recently summarized in many reviews.

Data set [7] relates to endometrial cancer cell lines. The settings on record: ref Wang, 2004; cited from earlier work. The source says: (§3) Recently, the anticancer activities of some natural peptides/toxins attracted considerable attention in drug discovery and have been the object of several studies showing that they affect tumor growth, induce apoptosis and inhibit cancer metastasis and angiogenesis in vitro and in vivo ([Ding et al., 2014]; [Majc et al., 2022]). Several examples of the activity of these peptides/toxins as well as their effect on K^+ channels have been recently summarized in many reviews. Thes ...

For data set [8], the system named is pancreatic cancer cell lines. The following applies: ref Wang, 2004; cited from earlier work.
Excerpt: as §3

Data set [9] has as its system IKCa/SK4 channel. The settings on record: ref Wang, 2004; cited from earlier work.
Excerpt: as §3

For data set [10], the system named is BKCa channel. The settings on record: ref Wang, 2004; cited from earlier work.
Excerpt: as §3

Data set [11] relates to U87 cells. The following applies: ref Pyrko et al., 2005, cited from earlier work. The source says: (§4) Thus, P01 and KAaH1 inhibited the U87 cell migration with different mechanisms. […] For instance, PIVL, a Kunitz-type serine protease inhibitor, from the venom of the Tunisian snake Macrovipera lebetina transmediterranea, re ...
Data set [12] deals with integrins. The settings on record: tumor cell and angiogenic endothelial cell surface; ref Schmitmeier et al., 2005; cited from earlier work.
Excerpt: as §4

On to `c1ccc2c(c1)c1cc[n+]2CCCCC[n+]2ccc(c3ccccc32)NCCCCCN1` [UCL1848], for which the “effect on U87 cell proliferation” value in [1] is recorded as “no effect”. Also, the concentration for half-maximal inhibition (IC50) in [2] was 0.12 nM.
Consider “apamin (CNCKAPETALCARRCQQH-NH2; disulfide 1-11, 3-15; ends not checked; UniProt P01500 28-45, looked up)”, for which the IC50 in data set [3] (COS-7 cells) is 12 nM; in data set [3] (Xenopus oocytes) it was 0.1 nM; in data set [4] (HEK293 cells, ref Shah and Haylett), 8 nM; in [4] (HEK 293 cells, ref Strobaek et al.), 3.3 nM; in data set [5] (HEK 293 cells, ref Strobaek et al., 2000), 0.083 nM.
For charybdotoxin, the “block of Kv1.3” value in [6] was “known blocker”. Besides, the “proliferation and cell cycle progression” value in [7] was “inhibited proliferation and cell cycle progression”; in data set [8] it was “inhibited proliferation and cell cycle progression”. Moreover, the “block of IKCa/SK4” value in [9] is recorded as “known blocker”. Moreover, in data set [10], the “block of BKCa” value is listed as “known blocker”.
As for contortrostatin, in [11] (rodent glioma model), the survival entry is listed as “prolongation of survival”. The tumor progression result in data set [11] (tumor induced by stereotactic injection of U87 cells) was “inhibited the tumor (induced by the stereotactically injection of U87 cells) progression”. In [12], the integrin binding entry is “specifically binds to certain integrins”.
With “leiurotoxin I: first toxin isolated from Leiurus quintestriatus scorpin (AFCNLRMCQLSCRSLGLLGKCIGDKCECVKH-NH2; disulfide 12-28, 3-21, 8-26; ends not checked; UniProt P16341 1-31, looked up)”, the IC50 in data set [5] (HEK293 cells, ref Hosseini et al., 2001) is 0.28 nM.

As a reminder, the IC50 is the point on the concentration scale where inhibition reaches its midpoint.
